Test results published in patent US20260234128A1, “CRYSTALLINE FORMS OF 2-(4-(4-(AMINOMETHYL)-1-OXO-1,2- DIHYDROPHTHALAZIN-6-YL)-1-METHYL-1H- PYRAZOL-5-YL)-4-CHLORO-6-CYCLOPROPOXY-3-FLUOROBENZONITRILE” (MIRATI THERAPEUTICS, INC., priority 2023, published 2026).
Counter-ions that a name gives are not always drawn.

What was measured:
[1] = Pharmacokinetics after oral capsule administration in male beagle dogs pre-treated with pentagastrin or famotidine; format: in vivo
Method: The substances were filled into Empty HPMC Capsules after correcting for potency and administered to dogs pre-treated with either pentagastrin or famotidine along with 40 mL of water. Pentagastrin enhances gastric secretions whereas famotidine neutralizes gastric sections. Therefore, pentagastrin and famotidine pre-treatments were used to simulate the impact of gastric pH on bioavailability and reduce the variability in gastric pH between dogs.
Plasma samples were collected at pre-defined intervals and analyzed for the concentration of Compound 1. The plasma concentration versus time data was analyzed by non-compartmental approaches using Win Nonlin software program to estimate PK parameters such as Cmax, Tmax, AUC0-t and AUC0-inf.

[2] = Dynamic vapor sorption (DVS) hygroscopicity; format: physicochemical; conditions: for form change after DVS evaluation: sample after DVS
Method: The hygroscopicity of HCl Form A was also evaluated by conducting dynamic vapor sorption experiments.
The hygroscopicity of HCl Form B was also evaluated by conducting dynamic vapor sorption experiments.
The hygroscopicity of HCl Form E was also evaluated by conducting dynamic vapor sorption experiments.

[3] = Manufacturability and physical stability (compressibility, tabletability, compatibility, XRD after compaction); format: physicochemical
Method: The XRD patterns were compared with the uncompressed compound. X-ray powder diffractograms were obtained on a wide-angle X-ray diffraction instrument (X'Pert Pro; PANalytical Inc., West Borough, MA) using Cu Ká radiation. The voltage and current applied were 45 kV and 40 mA, respectively. Each measurement was performed with a step size of 0.0167° in the 2-theta range of 5-35° and a dwell time of 0.4 s.

[4] = Intrinsic dissolution rate and drug in capsule dissolution in FaSSGF and FaSSIF; format: physicochemical
Method: The IDR rate was calculated using the slope of the linear curve divided by the surface area of tablet (0.5 cm^2). […] 0.6 mL liquid was removed with a syringe at each time point and filtered. The concentration of filtrates was analyzed by HPLC.

[5] = Competitive slurry experiments (relative stability of crystal forms); format: physicochemical
Excerpt: Pattern A was observed under certain conditions during competitive slurry experiments. Pattern A was confirmed to be racemate by chiral HPLC analysis.

[6] = Excipient compatibility (binary mixtures, total impurity by HPLC); format: physicochemical
Excerpt: Binary mixtures of samples were created by mixing the substance and the excipients (1:10 Compound to Excipients for fillers and 1:1 for all other excipients) using a mortar and pestle and the resultant mixture was accurately weighed and transferred into sample vials. The excipients used were as follows: colloidal silicon dioxide 200, croscarmellose sodium, crospovidone XL-10, dibasic calcium phosphate (an), hydroxypropyl cellulose, lactose monohydrate, magnesium stearate, mannitol 100SD, MCC PH102, Opadry™ II, povidone K-30, pregelatinized starch 1500, sodium starch glycolate, and sodium stearyl fumarate. The sample vials were set down at 40° C./75% RH condition for 8 weeks in open condition before analyzing their impurity levels using HPLC.

[7] = 25° C. between 10% relative humidity and 90% relative humidity, hydrochloride salt

Question: For `Cn1ncc(-c2ccc3c(=O)[nH]nc(CN)c3c2)c1-c1c(F)c(Cl)cc(OC2CC2)c1C#N` [HCl salt, 2-(4-(4-(aminomethyl)-1-oxo-1,2-dihydrophthalazin-6-yl)-1-methyl-1H-pyrazol-5-yl)-4-chloro-6-cyclopropoxy-3-fluorobenzonitrile hydrochloride salt], which “variability of plasma exposure” value ([1]; pentagastrin-treated dogs, oral 100 mg/dog, ascribed to common ion effect in the gastric media) is on record?
Answer: high variability

Question: With `Cn1ncc(-c2ccc3c(=O)[nH]nc(CN)c3c2)c1-c1c(F)c(Cl)cc(OC2CC2)c1C#N` [HCl Form B, 2-(4-(4-(aminomethyl)-1-oxo-1,2-dihydrophthalazin-6-yl)-1-methyl-1H-pyrazol-5-yl)-4-chloro-6-cyclopropoxy-3-fluorobenzonitrile hydrochloride salt] as the compound, how does the “water uptake (DVS isotherm)” value [2, 7] read?
Answer: approximately 1.3%

Question: And the “Hygroscopicity (25° C./80% RH), class in words” value [2]?
Answer: slightly

Question: What about the “Hygroscopicity (25° C./80% RH)” value ([2]; hydrochloride salt) of the same compound?
Answer: 1.3%

Question: What about the “form change after DVS evaluation” value [2] of the same compound?
Answer: No form change was observed

Question: And the “compatibility (tensile strength vs porosity)” value ([3]; at high pressures)?
Answer: good

Question: And the “compressibility (porosity vs compaction pressure)” value ([3]; at high pressures)?
Answer: good

Question: What about the “tabletability (tensile strength vs compaction pressure)” value ([3]; at high pressures) of the same compound?
Answer: good

Question: And the “phase stability by XRD after compression” value ([3]; high compaction pressure (300 MPa))?
Answer: loss of crystallinity was observed

Question: What about the “dissolution rate in intestinal media” value ([4]; 37° C., 50 rpm, USP Type II) of the same compound?
Answer: slightly faster dissolution rate than Free Base Form A

Question: What about the “dissolution in gastric media” value ([4]; 37° C., 50 rpm, USP Type II, hydrochloride salt) of the same compound?
Answer: common ion effect slowing dissolution

Question: What does the source list for `Cn1ncc(-c2ccc3c(=O)[nH]nc(CN)c3c2)c1-c1c(F)c(Cl)cc(OC2CC2)c1C#N` [HCl Form E, 2-(4-(4-(aminomethyl)-1-oxo-1,2-dihydrophthalazin-6-yl)-1-methyl-1H-pyrazol-5-yl)-4-chloro-6-cyclopropoxy-3-fluorobenzonitrile hydrochloride salt]?
Answer: water uptake (DVS isotherm) ([2]; 25° C. between 0% relative humidity and 80% relative humidity): approximately 2.56%; Hygroscopicity (25° C./80% RH), class in words [2]: slightly; Hygroscopicity (25° C./80% RH) ([2]; hydrochloride salt): 2.56%; form change after DVS evaluation [2]: No form change was observed; Crystal Form ([5]; H2O (starting with Type E only) at 25° C., 4 d): Form B; Crystal Form ([5]; H2O (starting with Type E only) at 25° C., 8 d): Form B

Question: Which “Crystal Form” value ([5]; EtOH/H2O (40:60 v/v) at 25° C., 1d (a clear solution was obtained before precipitation)) does the source give for `Cn1ncc(-c2ccc3c(=O)[nH]nc(CN)c3c2)c1-c1c(F)c(Cl)cc(OC2CC2)c1C#N` [amorphous HCl salt, 2-(4-(4-(aminomethyl)-1-oxo-1,2-dihydrophthalazin-6-yl)-1-methyl-1H-pyrazol-5-yl)-4-chloro-6-cyclopropoxy-3-fluorobenzonitrile] here?
Answer: Pattern A

Question: For `Cn1ncc(-c2ccc3c(=O)[nH]nc(CN)c3c2)c1-c1c(F)c(Cl)cc(OC2CC2)c1C#N` [Free Base Form A, 2-(4-(4-(aminomethyl)-1-oxo-1,2-dihydrophthalazin-6-yl)-1-methyl-1H-pyrazol-5-yl)-4-chloro-6-cyclopropoxy-3-fluorobenzonitrile], which exposure ([1]; oral 100 mg/dog, when the particle size was normalized) is on record?
Answer: equivalent exposure to HCl salt

Question: What about the “compatibility with excipients (total impurity content)” value ([6]; binary mixtures, 40° C./75% RH, 8 weeks, open condition, HPLC) of the same compound?
Answer: good compatibility with excipients

Question: What about the “sensitivity to individual excipients” value ([6]; colloidal silicon dioxide and lactose monohydrate, 40° C./75% RH, 8 weeks, open) of the same compound?
Answer: more sensitive to colloidal silicon dioxide and lactose monohydrate than HCl Form B

Question: And the “risk of chemical stability” value ([6]; with excipients, manageable by choice of excipients)?
Answer: slightly higher

Question: What about the “dissolution in gastric media” value ([4]; 37° C., 50 rpm, USP Type II) of the same compound?
Answer: faster dissolution in gastric media

Question: And the “super saturation in intestinal fluid” value ([4]; pH shifted from gastric to intestinal after 30 minutes)?
Answer: able to maintain super saturation in intestinal fluid

Question: Which “water uptake (DVS isotherm)” value [2, 7] does the source give for `Cn1ncc(-c2ccc3c(=O)[nH]nc(CN)c3c2)c1-c1c(F)c(Cl)cc(OC2CC2)c1C#N` [HCl Form A, 2-(4-(4-(aminomethyl)-1-oxo-1,2-dihydrophthalazin-6-yl)-1-methyl-1H-pyrazol-5-yl)-4-chloro-6-cyclopropoxy-3-fluorobenzonitrile hydrochloride salt] here?
Answer: approximately 1.43%

Question: And the “Hygroscopicity (25° C./80% RH), class in words” value [2]?
Answer: slightly

Question: And the “Hygroscopicity (25° C./80% RH)” value ([2]; hydrochloride salt)?
Answer: 1.43%

Question: What about the “form change after DVS evaluation” value [2] of the same compound?
Answer: No form change was observed

Question: And the “stability relative to the other HCl form” value ([1]; conclusion drawn from the dog study results)?
Answer: less stable than HCl Form B
